Where two headings read alike, the source gives them in different places.
Legend:
Rac1/SOD1 binding = biological target: T1, Rac1/SOD1 binding (Homo sapiens, UniProt P63000); assay: In vitro pull-down of His-Rac1-GTPγS with SOD1
T1 construct: purchased Cytoskeleton Inc. (His-Rac1); Oxis Research (bovine SOD1)
Protocol: Pull-down assays with GST- and His-tagged proteins. […] The GTPases were either used directly or preloaded with either GTPγS or GDPβS and then washed. […] Samples were incubated at room temperature (RT) for 30 minutes with intermittent gentle agitation. […] The fourth wash was carried out in 50 mM Tris pH 6.8. Proteins were eluted using 20 μl 125 mM imidazole and samples were then mixed with SDS-PAGE reducing loading buffer and separated by SDS-PAGE for Western blotting.

NADPH oxidase [1] = biological target: T2, NADPH oxidase (Homo sapiens, UniProt P04839); assay: ESR (DMPO adduct) of NADPH-dependent superoxide by IL-1β-activated endosomes; assay type: biochemical; design: enhanced recruitment of endogenous Nox2 to endosomes only following IL-1β stimulation; endogenous in cells; host or cells: MCF-7 cells, IL-1β-stimulated, iodixanol vesicular fractions; details: endosomal loading prior to vesicular isolation
MCF-7 cells = assay: H2HFF-BSA endosomal fluorescence after IL-1β in MCF-7 cells; assay type: cell-based, human
Protocol: In vivo localization of redox-active endosomes and ROS production. In vivo localization of superoxides within endosomes was performed using OxyBURST Green H2HFF-BSA (Molecular Probes). Stock solutions (1 mg/ml) were generated immediately prior to use by dissolving H2HFF-BSA in PBS under nitrogen and protected from light. Cells were incubated in the presence of 50 μg/ml OxyBurst Green H2HFF-BSA for 2 minutes at 37° C. and then stimulated by the addition of IL-1β (1 ng/ml). Cells were fixed in 4% paraformaldehyde at various times (1-10 minutes) post-stimulation and evaluated by fluorescent microscopy. Various compounds (1 mg/ml SOD or 10 μM DPI) were added at the time of IL-1β stimulation. Co-localization of H2HFF-BSA and EEA1 was performed by immunofluorescent localization in post-fixed samples using an anti-EEA1 monoclonal antibody (Transduction Laboratories) and a Texas Red-Conjugated Goat Anti-Mouse Antibody (Jackson ImmunoResearch Laboratories). In vivo localization of total cellular ROS (predominantly H2O2) was performed using H2DCFDA (Molecular Probes). […]
IL-1β induces Nox2 complex activation in early endosomes. […] By incubating cells in the presence of H2HFF-BSA, the endosomal compartment was loaded with this dye and ? detected by a green fluorescence signal. […] These findings confirmed that Nox-derived ? were the major ROS detected by H2HFF-BSA in the endosomal compartment. […]

[2] = assay type: in vivo; details: non-ALS mice treated with apocynin
NADPH oxidase [3] = assay: Nox activity (lucigenin, DHE) in lumbar spinal cord of end-stage G93A-SOD1 mice after 5 days of apocynin; assay type: in vivo, mouse; details: terminal stage ALS mice, apocynin 300 mg/kg in water for five days
From the text: (§1) FIG. 17. […] A) Survival curve for mice treated with different doses of apocynin in their water beginning at 14 days of age. Number of mice (N) for each treatment group is shown along with median survival times in days. B) Survival data of male and female mice for each given dose of apocynin. Mice treated for eye infections with antibiotics are marked as boxes. Those mice that were unsuccessfully treated and died from eye infections are denoted by an X within the box. Circles denote animals that never contracted eye infection. The number of mice in each group (N) is given above the mean survival in days for each dose of apocynin. C) Relationship between age of disease onset (as determined by a 5% weight loss during a one week period) and apocynin dosage. D) Survival Index was measured as the time from disease onset until the animal reached clinical death for each of the given doses of apocynin. E) NADPH-dependent superoxide production (Nox activity) was measured in total membranes of lumbar spinal cord from end-stage G93A-SOD1 transgenic mice (about 120 days of age) either untreated or treated with apocynin (300 mg/kg) for 5 days prior to analysis (N=5 in each group). F) Dihydroethidium fluorescence in lumbar spinal cord of the same mice shown in (E).

MO59J (glial) cells = assay: NADPH-dependent superoxide production and cell death in glial cells infected with adenovirus expressing mutant SOD1; assay type: cell-based; details: apocynin 100 μM for 72 hours
From the text: (§2) FIG. 15. […] A) NADPH-dependent superoxide production in total endomembranes from brain, spinal cord, and liver of non-transgenic or transgenic mice overexpressing WT-SOD1 or G93A-SOD1 (N=3 animals in each group). B) Dihydroethidium (DHE) fluorescent detection of superoxide in lumbar spinal cord sections from 120 day old non-transgenic or transgenic mice overexpressing WT-SOD1 or G93A-SOD1. DAP1 staining demarcates nuclei in lower panels. C, D) Measure of superoxide production (C) or trypan-blue exclusion as a measure of cell death (D) in SH-SY (neuronal) or MO59J (glial) cells infected with adenoviral vectors expressing LacZ, WT-SOD1, or the indicated mutant SOD1. E) Superoxide production and percentage of cell death in SH-SY or MO59J cells following infection with the indicated adenoviral vectors followed by treatment with or without apocynin (100 μM) for 72 hours. F) Rac-GTP activation as determined by association with GST-Pak1 using spinal cord cell lysates from non-transgenic (control) or G93A-SOD1 transgenic mice at 120 days of age. Controls include lysate from control mice incubated with GTPγS (+) or GDPβS (−) prior to performing Pak1 pull-down assays. […]

SOD1-G93A mice = assay: Survival and disease progression of G93A-SOD1 transgenic (ALS) mice given apocynin in drinking water; assay type: in vivo, mouse
From the text: FIG. 14. […] D) Survival Index is the time between disease onset and clinical death and is a marker of disease progression.
as §1
However, it is currently unclear if other Rac-regulated Nox complexes (such as Nox1 and Nox3) might also contribute to altered ROS production in ALS. To test the therapeutic potential of direct Nox inhibition on the pathoprogression of ALS disease, apocynin in vivo inhibition studies were performed in G93A-ALS mice.

SH-SY (neuronal) cells = assay: NADPH-dependent superoxide production and cell death in neuronal cells infected with adenovirus expressing mutant SOD1; assay type: cell-based; details: apocynin 100 μM for 72 hours
From the text: as §2

Nox = assay type: biochemical, mouse
Protocol: Lucigenin chemiluminescence (LCL) assay for NADPH-dependent superoxide (.O2) production. NADPH oxidase activities were analyzed by measuring the rate of ? generation using a chemiluminescent, lucigenin-based system (Li et al., 1998). 5 μM lucigenin in 50 μl of each subcellular fractions was incubated in the dark at room temperature for 15 minutes. LCL was measured using a single-tube Luminometer TD20-20 (Turner Designs Sunnyvale, Calif.). The reaction was initiated by the addition β-NADPH to a final concentration of 100 μM with or without DPI and/or SOD as indicated. LCL was measured over the course of 5 minutes. The initial slope of the luminescence curve (RLU/minute) was used to calculate the rate of luminescence product formation and compared between samples as an index of NADPH oxidase activity.

NADPH oxidase [4] = biological target: T2, NADPH oxidase; assay: Lucigenin assay of NADPH-dependent superoxide production in vesicular fractions of IL-1β-stimulated MCF-7 cells
Protocol: Cytokine treatments and vesicular isolation. MCF-7 cells were treated with recombinant IL-1β at the indicated concentration for 20 minutes prior to all vesicular isolations. For endosomal loading experiments, purified bovine Cu/ZnSOD (Oxis Research) and/or catalase (Sigma-Aldrich) proteins were added to fresh media (0.1 to 1 mg protein/ml) and applied to cells 10 minutes prior to cytokine treatment in the continued presence of SOD and/or catalase. Cells were washed and scraped into ice-cold PBS. Cell pellets were then resuspended in 0.5 ml of homogenization buffer (0.25 M sucrose, 10 mM triethanolamine, 1 mM EDTA, 1 mM PMSF, and 100 ug/ml aprotinin), homogenized in a Duall tissue grinder (Duall), and centrifuged at 2000×g at 4° C. for 10 minutes. The supernatant was designated the post-nuclear supernatant (PNS). […] The PNS was then bottom loaded under two-step gradients of 24% and 20% Iodixanol in homogenization buffer. Samples were centrifuged at 30,500 rpm for 2 hours at 4° C. Fractions were collected from the top to the bottom of the centrifuge tube at 4° C. (about 300 μl per fraction) and utilized immediately for NADPH oxidase activity and immuno-isolation, or frozen for Western blot analysis.
NFκB and NADPH oxidase activity assays. […] NADPH oxidase activities were analyzed by measuring the rate of ? generation using a chemiluminescent, lucigenin-based system (Li et al., 2001). Prior to the initiation of the assay, 5 μg of vesicular proteins were combined with 5 μM lucigenin (Sigma-Aldrich) in PBS and incubated in darkness at room temperature for 10 minutes. The reaction was initiated by the addition of 100 μM of NADPH (Sigma-Aldrich) and changes in luminescence were measured over the course of 3 minutes (5 readings/second). The slope of the luminescence curve (relative light units [RLU] per minute) (r>0.95) was used to calculate the rate of ? formation as an index of NADPH oxidase activity (RLU/min μg protein).

Nox2 = Nox2 (Mus musculus, UniProt Q61093); details: PMDF endosomes with purified bovine SOD1
From the text: Subcellular Fractionation.
Lucigenin chemiluminescence (LCL) assay for NADPH-dependent superoxide (.O2) production.

With `O[C@H](CS)[C@H](O)CS` (racemic) [DTT, dithiothreitol] the “DTT concentration reversing H2O2-mediated inhibition of Rac1/SOD1 binding” value (Rac1/SOD1 binding; Rac1 oxidized with 300 pM H2O2) was 50 to 300 µM.
With “Cu/ZnSOD: purified bovine Cu/ZnSOD (Oxis Research) added to media for endosomal loading” the “DMPO adduct formation (ESR)” value (NADPH oxidase [1]) was “completely inhibited” and the “IL-1β-induced H2HFF-BSA fluorescence” value (MCF-7 cells; purified Cu/ZnSOD protein loaded into endosomal compartment, 1 mg/ml) was “significantly inhibited”.
In the case of `COc1cc(C(C)=O)ccc1O` [apocynin, 4-Hydroxy-3-methoxyacetophenone], the Eye disease [2] is reported as “did not develop eye disease”, the “Nox-derived superoxide production in vivo (spinal cord, lucigenin and DHE assays)” value (NADPH oxidase [3]) is reported as “effectively inhibited” and the Cell viability (MO59J (glial) cells) is reported as “increase in cell viability”. The “SOD1 mutant facilitated NADPH-dependent superoxide production” value (MO59J (glial) cells) was “abrogated”, the “Number of motor neurons in the lumbar spinal cord” value (SOD1-G93A mice; 300 mg/kg, at 120 days) was “significantly increased” and the Probability of survival (SOD1-G93A mice; SOD1-G93A mice, apocynin 30 mg/Kg, nontreated 125 days, p<0.0001) was 185 days. The Gait analysis (SOD1-G93A mice; apocynin 30 mg/Kg, at 114 days of age, untreated mice impaired gait) was “normal gait”, the “Survival Index (time between disease onset and clinical death)” value (SOD1-G93A mice; apocynin 30 mg/Kg, n=6, untreated 11 days) was 32 days and the “Survival of G93A-SOD1 mice, dose dependence” value (SOD1-G93A mice; apocynin in drinking water from 2 weeks of age) was “prolonged survival of G93A-SOD1 mice in a dose-dependent fashion”. For the same compound, the “Average age of disease onset” value (SOD1-G93A mice; first observation of hind limb weakness, apocynin 30 mg/Kg, n=6, untreated 117.5 days) was 156.5 days, the 50% survival time (SOD1-G93A mice; highest dose 300 mg/kg in drinking water from 2 weeks of age, increased from 125 days) was 239 days and the “Life expectancy and disease onset” value (SOD1-G93A mice; lowest tested dose) was “prolong life expectancy and delay disease onset”. The “Age of onset of disease and survival index versus dose” value (SOD1-G93A mice; onset judged by 5% weight loss and gait) was “clear dose response”, the Nox activity (SH-SY (neuronal) cells) was “could not inhibit” and the “Protection from mutant SOD1-mediated cellular injury” value (SH-SY (neuronal) cells) was “nor did it protect”.
In the case of `OO` [H2O2, hydrogen peroxide], the “Lowest H2O2 concentration causing a significant decrease in the binding affinity of Rac1 for SOD1” value (Rac1/SOD1 binding; Rac1 reduced with DTT, preloaded with GTPγS) is reported as 50 pM.
In the case of `c1ccc2c(c1)[I+]c1ccccc1-2` [DPI, diphenyleneiodonium chloride], the NADPH-dependent superoxide production (Nox) is reported as “inhibited”, the “IL-1β-induced H2HFF-BSA fluorescence” value (MCF-7 cells; 10 μM DPI added at IL-1β stimulation) is reported as “significantly inhibited” and the “NADPH-dependent superoxide production in peak vesicular fractions” value (NADPH oxidase [4]) is reported as “sensitive”. For the same compound, the “SOD1-mediated enhancement in endosomal NADPH-dependent superoxide” value (Nox2) was “sensitive”.
In the case of `C=C(C)[C@H]1Cc2c(ccc3c2O[C@@H]2COc4cc(OC)c(OC)cc4[C@@H]2C3=O)O1` [rotenone], the “NADPH-dependent superoxide production in peak vesicular fractions” value (NADPH oxidase [4]; IL-1β-stimulated MCF-7 cells) is reported as “not”.
With antimycin A the “NADPH-dependent superoxide production in peak vesicular fractions” value (NADPH oxidase [4]; IL-1β-stimulated MCF-7 cells) was “not”.
For catalase, the “DMPO adduct formation (ESR)” value (NADPH oxidase [1]) was “not”.

— patent US20080206792A1, “Method of identifying compounds useful to treat neuronal degenerative diseases” (University of Iowa Research Foundation, priority 2005, published 2008)
